Data on 13 molecules can be found in ChEMBL document CHEMBL1938311, “Potent adjuvantic activity of a CCR1-agonistic bis-quinoline” (Bioorg Med Chem Lett, 2012).

The subject of data set [1] is Mus musculus. As to the kind of experiment: Adjuvantic activity in CF-1 mouse assessed as increase in bovine alpha-lactalbumin-elicited IgG1 production at 50 ug, im followed by booster dose administered on day 14 measured after 21 days. Format: functional, organism-based.
In data set [2] the test system is Mus musculus. Nature of the data set: Adjuvantic activity in CF-1 mouse assessed as increase in bovine alpha-lactalbumin-elicited antibodies production at 50 ug, im followed by booster dose administered on day 14 measured after 21 days by surface-plasmon resonance. Format: functional, organism-based.
Data set [3] relates to Mus musculus. As to the kind of experiment: Adjuvantic activity in CF-1 mouse assessed as increase in bovine alpha-lactalbumin-elicited IgG2a production at 50 ug, im followed by booster dose administered on day 14 measured after 21 days. Format: functional, organism-based.
For data set [4], the system named is HEK293. Nature of the data set: Transactivation of NF-kappaB expressed in HEK293 cells co-transfected TLR2/TLR3/TLR4/TLR5/TLR7/TLR8/TLR9/Nod-1 by alkaline phosphatase reporter gene assay. Format: cell-based. In general terms: In a reporter assay the amount or activity of a reporter protein is the signal.
Data set [5] deals with T1, C-C chemokine receptor type 1 (Homo sapiens, UniProt P32246).
T1 sequence (P32246 whole entry): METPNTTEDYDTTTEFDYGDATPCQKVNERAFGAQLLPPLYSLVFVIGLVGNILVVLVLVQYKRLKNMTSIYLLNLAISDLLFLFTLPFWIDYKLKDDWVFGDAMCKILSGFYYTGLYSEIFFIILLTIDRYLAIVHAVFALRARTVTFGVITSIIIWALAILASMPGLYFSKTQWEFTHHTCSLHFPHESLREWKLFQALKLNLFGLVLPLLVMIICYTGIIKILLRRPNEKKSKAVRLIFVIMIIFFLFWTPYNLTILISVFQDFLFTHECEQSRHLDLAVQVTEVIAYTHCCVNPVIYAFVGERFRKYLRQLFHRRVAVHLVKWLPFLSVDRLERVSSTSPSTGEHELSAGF
Nature of the data set: Agonist activity at human CCR1 expressed in CHO cells by cellular dielectric spectroscopy. It is filed as functional, cell-based.

The test system of data set [6] is Salmonella typhimurium. Nature of the data set: Mutagenic activity in Salmonella Typhimurium TA100-S9 by Ames test. It is filed as toxicity, organism-based. The following applies: salmonella enterica subsp. enterica serovar typhimurium. (In general: The Ames test uses bacterial strains that need an amino acid and regain growth without it when mutated back.)
In data set [7] the test system is Blood. Nature of the data set: Pro-inflammatory activity in human whole blood assessed as IL-8 production upto 50 uM. It is filed as functional, tissue-based.
Data set [8] deals with PBMC. Nature of the data set: Immunostimulatory activity against human PBMC by transcriptional profiling. Format: functional, cell-based.
Data set [9] has as its target C-X-C chemokine receptor type 4 (Homo sapiens) (UniProt P61073). Nature of the data set: Agonist activity at CXCR4 expressed in CHO cells at 10^-6 to 10^-5 M by cellular dielectric spectroscopy. Format: functional, cell-based.
The test system of data set [10] is Salmonella typhimurium. Nature of the data set: Mutagenic activity in Salmonella Typhimurium TA1535-S9 by Ames test. The following applies: salmonella enterica subsp. enterica serovar typhimurium. It is filed as toxicity, organism-based.
Data set [11] concerns Blood. Nature of the data set: Pro-inflammatory activity in human whole blood assessed as IL-6 production upto 50 uM. Format: functional, tissue-based.
Data set [12] addresses T2, C-C chemokine receptor type 3 (Homo sapiens) (UniProt P51677).
T2 sequence (whole entry): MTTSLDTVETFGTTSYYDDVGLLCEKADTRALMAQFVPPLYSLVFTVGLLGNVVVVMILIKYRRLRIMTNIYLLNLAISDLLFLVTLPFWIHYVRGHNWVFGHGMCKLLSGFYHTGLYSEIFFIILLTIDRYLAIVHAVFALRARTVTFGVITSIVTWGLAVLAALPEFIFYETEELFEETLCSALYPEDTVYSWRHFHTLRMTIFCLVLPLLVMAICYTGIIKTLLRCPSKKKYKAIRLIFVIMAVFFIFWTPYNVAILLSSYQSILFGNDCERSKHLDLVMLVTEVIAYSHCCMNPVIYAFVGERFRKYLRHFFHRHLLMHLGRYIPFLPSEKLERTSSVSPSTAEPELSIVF
As to the kind of experiment: Agonist activity at CCR3 expressed in CHO cells at 10^-6 to 10^-5 M by cellular dielectric spectroscopy. It is filed as functional, cell-based.

In data set [13] the test system is Blood. As to the kind of experiment: Pro-inflammatory activity in human whole blood assessed as IL-12 production upto 50 uM. Format: functional, tissue-based.
Data set [14] relates to Salmonella typhimurium. As to the kind of experiment: Mutagenic activity in Salmonella Typhimurium TA98-S9 by Ames test. Format: toxicity, organism-based. As to conditions: salmonella enterica subsp. enterica serovar typhimurium.
For data set [15], the system named is Mus musculus. As to the kind of experiment: Toxicity in CF-1 mouse assessed as mortality up to 100 mg/kg, ip administered as single dose measured at 48 hrs. On the set-up: dose 100 mg/kg, route intraperitoneal. It is filed as organism-based. As to conditions: in vivo.
For data set [16], the system named is HEK293. As to the kind of experiment: Transactivation of NF-kappaB expressed in HEK293 cells by alkaline phosphatase reporter gene assay. Format: cell-based.
The target in data set [17] is T3, C-X-C chemokine receptor type 2 (Homo sapiens) (UniProt P25025).
T3 sequence (whole entry): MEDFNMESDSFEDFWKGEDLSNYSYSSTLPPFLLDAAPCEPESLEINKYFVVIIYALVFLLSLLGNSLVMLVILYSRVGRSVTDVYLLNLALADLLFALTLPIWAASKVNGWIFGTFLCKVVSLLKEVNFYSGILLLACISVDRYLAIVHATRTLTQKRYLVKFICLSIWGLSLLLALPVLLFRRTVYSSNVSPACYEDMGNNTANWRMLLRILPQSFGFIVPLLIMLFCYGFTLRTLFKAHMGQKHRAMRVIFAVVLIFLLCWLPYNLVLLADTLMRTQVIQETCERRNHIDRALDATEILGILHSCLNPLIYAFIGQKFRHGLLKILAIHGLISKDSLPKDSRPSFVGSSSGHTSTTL
As to the kind of experiment: Agonist activity at CXCR2 expressed in CHO cells at 10^-6 to 10^-5 M by cellular dielectric spectroscopy. Format: functional, cell-based.

The subject of data set [18] is Blood. As to the kind of experiment: Pro-inflammatory activity in human whole blood assessed as IL-18 production upto 50 uM. Format: functional, tissue-based.
In data set [19] the test system is Blood. Nature of the data set: Antiinflammatory activity in human whole blood assessed as IL-10 production upto 50 uM. It is filed as functional, tissue-based.
Data set [20] has as its target C-C chemokine receptor type 2 (Homo sapiens) (UniProt P41597). Nature of the data set: Agonist activity at CCR2 expressed in CHO cells at 10^-6 to 10^-5 M by cellular dielectric spectroscopy. Format: functional, cell-based.
Data set [21] concerns PBMC. Nature of the data set: Modulation of inflammation in human PBMC by transcriptional profiling. Format: functional, cell-based.
The subject of data set [22] is Blood. As to the kind of experiment: Pro-inflammatory activity in human whole blood assessed as TNF-alpha production upto 50 uM. It is filed as functional, tissue-based.
The test system of data set [23] is Blood. Nature of the data set: Pro-inflammatory activity in human whole blood assessed as IL1-beta production upto 50 uM. Format: functional, tissue-based.

One may read the EC50 as the concentration at which the effect is half-maximal. Low values mean greater potency, high ones weaker potency.

Calls of active or inactive are those of the source. The rule behind the calls is not given here.

Chain of C-X-C chemokine receptor type 4 (Homo sapiens) (P61073 whole entry): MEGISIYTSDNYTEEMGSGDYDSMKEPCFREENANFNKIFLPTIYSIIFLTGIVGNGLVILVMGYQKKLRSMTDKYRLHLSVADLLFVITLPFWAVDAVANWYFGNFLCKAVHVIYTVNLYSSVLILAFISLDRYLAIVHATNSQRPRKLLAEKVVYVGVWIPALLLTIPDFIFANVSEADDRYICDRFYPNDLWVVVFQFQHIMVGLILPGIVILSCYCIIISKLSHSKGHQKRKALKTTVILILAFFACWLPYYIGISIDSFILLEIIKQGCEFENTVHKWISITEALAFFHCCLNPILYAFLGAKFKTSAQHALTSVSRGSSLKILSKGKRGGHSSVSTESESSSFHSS
Chain of C-C chemokine receptor type 2 (Homo sapiens) (P41597 whole entry, looked up): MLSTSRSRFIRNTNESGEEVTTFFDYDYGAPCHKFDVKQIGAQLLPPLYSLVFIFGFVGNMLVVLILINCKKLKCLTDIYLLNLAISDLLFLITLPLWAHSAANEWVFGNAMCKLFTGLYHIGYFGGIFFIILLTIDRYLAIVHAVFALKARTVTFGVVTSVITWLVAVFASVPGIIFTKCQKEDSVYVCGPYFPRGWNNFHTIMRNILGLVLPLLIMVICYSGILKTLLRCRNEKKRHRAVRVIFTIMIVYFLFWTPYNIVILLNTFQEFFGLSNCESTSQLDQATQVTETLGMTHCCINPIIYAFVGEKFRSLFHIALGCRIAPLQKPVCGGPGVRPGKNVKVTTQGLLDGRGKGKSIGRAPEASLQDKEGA

Take `CCCCCCCCCCCCCCCC(=O)OCC(CSC[C@H](N)C(=O)N[C@@H](CO)C(=O)O)OC(=O)CCCCCCCCCCCCCCC` (stereo not given in full): the outcome in the data set on Mus musculus [1], with Mus musculus [2] and in the data set with Mus musculus [3] was Active.
With `Clc1ccc2c(NCCCCCCCCCCNc3ccnc4cc(Cl)ccc34)ccnc2c1`, in the data set with HEK293 [4], the result was inactive.
With `Clc1ccc2c(NCCCCCCCCCCCCNc3ccnc4cc(Cl)ccc34)ccnc2c1`, the outcome in the data set on HEK293 [4] was inactive.
On the same count and under the same terms, the result for `Clc1ccc2c(NCCCCCCCNc3ccnc4cc(Cl)ccc34)ccnc2c1` reads “inactive”.
In turn, `Clc1ccc2c(NCCCCNc3ccnc4cc(Cl)ccc34)ccnc2c1` registered an EC50 in [5] of 2 µM. The Activity entry in the data set on Salmonella typhimurium [6], in the data set with Salmonella typhimurium [10], in the data set on Salmonella typhimurium [14] and in the data set on Mus musculus [15] was “Non-toxic” throughout. In addition, the result in the data set on Mus musculus [1], with Mus musculus [2], in the data set with Mus musculus [3] and in the data set on HEK293 [16] was Active. In addition, the result (with Blood [7]; with PBMC [8]; in data set [9]; in the data set on Blood [11]; in the data set on HEK293 [4]; in data set [12]) was inactive. In addition, the outcome (in the data set on Blood [13]; in [17]; in the data set with Blood [18]; in the data set with Blood [19]; in data set [20]; in the data set with PBMC [21]) was inactive. For the same molecule, the outcome in the data set on Blood [22] and with Blood [23] was inactive.
As to `CCCc1nc2c(N)nc3ccccc3c2s1`, the result in the data set on Blood [7], with Blood [11], with Blood [13], in the data set with Blood [18], with Blood [19] and in the data set on Blood [22] was Active. Further, in the data set on Blood [23], the outcome was Active.
On to `Clc1ccc2c(NCCNc3ccnc4cc(Cl)ccc34)ccnc2c1`, for which the outcome in the data set on HEK293 [4] was inactive.
Still for that read-out and setting: the result for `Clc1ccc2c(NCCCCCCNc3ccnc4cc(Cl)ccc34)ccnc2c1` reads “inactive”; that for `Clc1ccc2c(NCCCNc3ccnc4cc(Cl)ccc34)ccnc2c1`, “inactive”.
Regarding `Clc1ccc2c(NCCCCCCCCNc3ccnc4cc(Cl)ccc34)ccnc2c1`, in the data set with HEK293 [4], the result was inactive.
The same measure, in the same setting: next, `CCN(CC)CCCC(C)Nc1ccnc2cc(Cl)ccc12` (stereo not given): “inactive”; `Clc1ccc2c(NCCCCCNc3ccnc4cc(Cl)ccc34)ccnc2c1`: “inactive”.
`CCCCCCCCCCCCCC(=O)OC(CCCCCCCCCCC)CC(=O)N[C@H]1[C@H](OC[C@H]2O[C@H](O)[C@H](NC(=O)CC(O)CCCCCCCCCCC)[C@@H](OC(=O)CC(O)CCCCCCCCCCC)[C@@H]2O)O[C@H](CO)[C@@H](OP(=O)(O)O)[C@@H]1OC(=O)CC(CCCCCCCCCCC)OC(=O)CCCCCCCCCCCCC` (stereo not given in full): the result in the data set with Mus musculus [1], in the data set with Mus musculus [2] and with Mus musculus [3] was Active.
